Assay results published in US20150087673A1, “METHODS FOR USING AND BIOMARKERS FOR AMPK-ACTIVATING COMPOUNDS” (RIGEL PHARMACEUTICALS, INC., priority 2013, published 2015).
Marks after values point to notes of the source that are not given here.

Tested on: db/db mice
Assay: Metabolomics study: metabolite profiling of liver, muscle, adipose tissue and plasma of treated db/db mice
Type: in vivo, mouse
Protocol: Maledb/db mice (8 weeks) were orally gavaged once daily with either vehicle or 10 mg/kg compound 309. Liver, muscle, adipose tissue, and plasma from treated mice (n=6/treatment group) were collected 30 minutes after dosing both on day 3 of treatment. Frozen tissue and plasma samples were sent to Metabolon for unbiased metabolite analysis [(Durham, N.C.) See, Evans A, DeHaven C, Barrett T, Mitchell M, Milgram E (2009)—Integrated, nontargeted ultrahigh performance liquid chromatography/electrospray ionization tandem mass spectrometry platform for the identification and relative quantification of the small-molecule complement of biological systems. Anal Chem 81: 6656-6667. Lawton K, Berger A, Mitchell M, Milgram K, Evans A, et al. (2008)—Analysis of the adult human plasma metabolome. Pharmacogenomics 9: 383-397. Reitman Z J, Jin G, Karoly E D, Spasojevic I, Yang J, et al. (2011) Profiling the effects of isocitrate dehydrogenase 1 and 2 mutations on the cellular metabolome. PNAS 108: […].] Biochemical data were analyzed using Welch's two-sample t-tests.
Metabolite profiling of tissues from db/db mice orally dosed with either vehicle or 10 mg/kg compound 309 was used to characterize in detail the effects of the present AMPK activators on nutrient pathways in a commonly used mouse model of type 2 diabetes. […] Since AMPK activation results in both acute and chronic changes to metabolic pathways, samples from non-fasted mice treated for three days with compound 309 were analyzed. Samples were collected thirty minutes after compound dosing when compound 309 plasma levels as well as tissue AMPK activation were maximal.

[1] = Adipose, 10 mg/kg oral once daily, day 3, 30 min after dosing
[2] = Liver, 10 mg/kg oral once daily, day 3, 30 min after dosing
[3] = Muscle, 10 mg/kg oral once daily, day 3, 30 min after dosing
[4] = Plasma, 10 mg/kg oral once daily, day 3, 30 min after dosing

COc1ccc(C(=O)C2CCN(C(=O)c3ccc(C(=O)NC4CCN(Cc5ccc(C#N)cc5)CC4)cn3)CC2)cc1 [Compound 309, N-(1-(4-cyanobenzyl)piperidin-4-yl)-6-(4-(4-methoxybenzoyl)piperidine-1-carbonyl)nicotinamide]
relative levels of the other amino acids (10 mg/kg): not similarly affected
2-methylbutyrlcarnitine (C5) Ratio (Compound 309/Vehicle) [1]: 0.57^††
3-hydroxybutyrate (BHBA) Ratio (Compound 309/Vehicle) [1]: 1.68**
3-hydroxyisobutyrate Ratio (Compound 309/Vehicle) [1]: 1.13
3-methyl-2-oxobutyrate Ratio (Compound 309/Vehicle) [1]: 1
3-methyl-2-oxovalerate Ratio (Compound 309/Vehicle) [1]: 1.31**
4-methyl-2-oxopentanoate Ratio (Compound 309/Vehicle) [1]: 1.23
alanine Ratio (Compound 309/Vehicle) [1]: 1
arginine Ratio (Compound 309/Vehicle) [1]: 0.86^††
asparagine Ratio (Compound 309/Vehicle) [1]: 0.84
aspartate Ratio (Compound 309/Vehicle) [1]: 0.72^††
butyrylcarnitine Ratio (Compound 309/Vehicle) [1]: 0.82
cysteine Ratio (Compound 309/Vehicle) [1]: 0.62^†
glutamate Ratio (Compound 309/Vehicle) [1]: 0.89
glutamine Ratio (Compound 309/Vehicle) [1]: 0.95
glycine Ratio (Compound 309/Vehicle) [1]: 0.81
hydroxybutyrylcarnitine Ratio (Compound 309/Vehicle) [1]: 1.7**
hydroxylisovaleroyl carnitine Ratio (Compound 309/Vehicle) [1]: 0.86
isobutyrylcarnitine Ratio (Compound 309/Vehicle) [1]: 0.57^††
isoleucine Ratio (Compound 309/Vehicle) [1]: 0.73
isovalerylcarnitine Ratio (Compound 309/Vehicle) [1]: 0.58^††
leucine Ratio (Compound 309/Vehicle) [1]: 0.78
lysine Ratio (Compound 309/Vehicle) [1]: 0.74
methionine Ratio (Compound 309/Vehicle) [1]: 0.87
phenylalanine Ratio (Compound 309/Vehicle) [1]: 0.82
proline Ratio (Compound 309/Vehicle) [1]: 0.86
propionylcarnitine Ratio (Compound 309/Vehicle) [1]: 0.77
serine Ratio (Compound 309/Vehicle) [1]: 0.85
threonine Ratio (Compound 309/Vehicle) [1]: 0.77^†
tryptophan Ratio (Compound 309/Vehicle) [1]: 0.9
tyrosine Ratio (Compound 309/Vehicle) [1]: 0.85
valine Ratio (Compound 309/Vehicle) [1]: 0.81
2-methylbutyrlcarnitine (C5) Ratio (Compound 309/Vehicle) [2]: 0.76
3-hydroxybutyrate (BHBA) Ratio (Compound 309/Vehicle) [2]: 1.15
3-methylglutaryl carnitine (C6) Ratio (Compound 309/Vehicle) [2]: 0.57^††
N-acetylleucine Ratio (Compound 309/Vehicle) [2]: 0.94
alanine Ratio (Compound 309/Vehicle) [2]: 1.4**
alpha-hydroxyisovalerate Ratio (Compound 309/Vehicle) [2]: 0.86
arginine Ratio (Compound 309/Vehicle) [2]: 1.67
aspartate Ratio (Compound 309/Vehicle) [2]: 1.59**
butyrylglycine Ratio (Compound 309/Vehicle) [2]: 0.41^††
cysteine Ratio (Compound 309/Vehicle) [2]: 0.97
glutamate Ratio (Compound 309/Vehicle) [2]: 1.61**
glutamine Ratio (Compound 309/Vehicle) [2]: 1.04
glycine Ratio (Compound 309/Vehicle) [2]: 0.96
histidine Ratio (Compound 309/Vehicle) [2]: 1.16*
hydroxybutyrylcarnitine Ratio (Compound 309/Vehicle) [2]: 1.45**
hydroxylisovaleroyl carnitine Ratio (Compound 309/Vehicle) [2]: 1
isoleucine Ratio (Compound 309/Vehicle) [2]: 0.86^††
isovalerylcarnitine Ratio (Compound 309/Vehicle) [2]: 0.54^††
leucine Ratio (Compound 309/Vehicle) [2]: 0.94
lysine Ratio (Compound 309/Vehicle) [2]: 1.11*
methionine Ratio (Compound 309/Vehicle) [2]: 1.03
phenylalanine Ratio (Compound 309/Vehicle) [2]: 0.96
proline Ratio (Compound 309/Vehicle) [2]: 0.94
propionylcarnitine Ratio (Compound 309/Vehicle) [2]: 0.73
serine Ratio (Compound 309/Vehicle) [2]: 1.19
threonine Ratio (Compound 309/Vehicle) [2]: 0.94
tryptophan Ratio (Compound 309/Vehicle) [2]: 0.99
tyrosine Ratio (Compound 309/Vehicle) [2]: 1.08
valine Ratio (Compound 309/Vehicle) [2]: 0.87^††
2-methylbutyrlcarnitine (C5) Ratio (Compound 309/Vehicle) [3]: 0.63^††
3-hydroxybutyrate (BHBA) Ratio (Compound 309/Vehicle) [3]: 2.2**
3-hydroxyisobutyrate Ratio (Compound 309/Vehicle) [3]: 1.33*
3-methyl-2-oxovalerate Ratio (Compound 309/Vehicle) [3]: 0.78
4-methyl-2-oxopentanoate Ratio (Compound 309/Vehicle) [3]: 0.96
alanine Ratio (Compound 309/Vehicle) [3]: 0.96
alpha-hydroxyisovalerate Ratio (Compound 309/Vehicle) [3]: 0.85
arginine Ratio (Compound 309/Vehicle) [3]: 0.71
aspartate Ratio (Compound 309/Vehicle) [3]: 0.82
butyrylcarnitine Ratio (Compound 309/Vehicle) [3]: 0.62
butyrylglycine Ratio (Compound 309/Vehicle) [3]: 1.07
glutamate Ratio (Compound 309/Vehicle) [3]: 1.15
glutamine Ratio (Compound 309/Vehicle) [3]: 1.04
glycine Ratio (Compound 309/Vehicle) [3]: 0.96
histidine Ratio (Compound 309/Vehicle) [3]: 1
hydroxybutyrylcarnitine Ratio (Compound 309/Vehicle) [3]: 1.34*
hydroxylisovaleroyl carnitine Ratio (Compound 309/Vehicle) [3]: 0.86^†
isobutyrylcarnitine Ratio (Compound 309/Vehicle) [3]: 0.64^††
isoleucine Ratio (Compound 309/Vehicle) [3]: 0.81^††
isovalerylcarnitine Ratio (Compound 309/Vehicle) [3]: 0.58^††
leucine Ratio (Compound 309/Vehicle) [3]: 0.83^†
lysine Ratio (Compound 309/Vehicle) [3]: 0.96
methionine Ratio (Compound 309/Vehicle) [3]: 0.78^†
phenylalanine Ratio (Compound 309/Vehicle) [3]: 0.91
proline Ratio (Compound 309/Vehicle) [3]: 0.92
propionylcarnitine Ratio (Compound 309/Vehicle) [3]: 0.87^†
serine Ratio (Compound 309/Vehicle) [3]: 0.89
threonine Ratio (Compound 309/Vehicle) [3]: 0.89
tiglyl carnitine Ratio (Compound 309/Vehicle) [3]: 0.98
tryptophan Ratio (Compound 309/Vehicle) [3]: 0.95
tyrosine Ratio (Compound 309/Vehicle) [3]: 0.96
valine Ratio (Compound 309/Vehicle) [3]: 0.77^††
2-hydroxy-3-methylvalerate Ratio (Compound 309/Vehicle) [4]: 0.91
2-methylbutyrlcarnitine (C5) Ratio (Compound 309/Vehicle) [4]: 0.56^††
3-hydroxybutyrate (BHBA) Ratio (Compound 309/Vehicle) [4]: 1.93**
3-hydroxyisobutyrate Ratio (Compound 309/Vehicle) [4]: 1.69**
3-methyl-2-oxobutyrate Ratio (Compound 309/Vehicle) [4]: 1.17
3-methyl-2-oxovalerate Ratio (Compound 309/Vehicle) [4]: 1.06
3-methylglutaryl carnitine (C6) Ratio (Compound 309/Vehicle) [4]: 0.55^††
4-methyl-2-oxopentanoate Ratio (Compound 309/Vehicle) [4]: 1.05
N-acetylisoleucisne Ratio (Compound 309/Vehicle) [4]: 1.11
N-acetylleucine Ratio (Compound 309/Vehicle) [4]: 0.96
alanine Ratio (Compound 309/Vehicle) [4]: 1.22
alpha-hydroxyisocaproate Ratio (Compound 309/Vehicle) [4]: 0.91
alpha-hydroxyisovalerate Ratio (Compound 309/Vehicle) [4]: 0.91
arginine Ratio (Compound 309/Vehicle) [4]: 0.95
asparagine Ratio (Compound 309/Vehicle) [4]: 0.89
butyrylcarnitine Ratio (Compound 309/Vehicle) [4]: 0.65^†
butyrylglycine Ratio (Compound 309/Vehicle) [4]: 0.41^††
cysteine Ratio (Compound 309/Vehicle) [4]: 0.94
glutamate Ratio (Compound 309/Vehicle) [4]: 1.22*
glutamine Ratio (Compound 309/Vehicle) [4]: 1.03
glycine Ratio (Compound 309/Vehicle) [4]: 1.03
histidine Ratio (Compound 309/Vehicle) [4]: 0.99
hydroxybutyrylcarnitine Ratio (Compound 309/Vehicle) [4]: 2.28**
isobutyrylcarnitine Ratio (Compound 309/Vehicle) [4]: 0.41^††
isoleucine Ratio (Compound 309/Vehicle) [4]: 0.75^††
isovalerylcarnitine Ratio (Compound 309/Vehicle) [4]: 0.45^††
isovalerylglycine Ratio (Compound 309/Vehicle) [4]: 0.67^††
leucine Ratio (Compound 309/Vehicle) [4]: 0.75^†
lysine Ratio (Compound 309/Vehicle) [4]: 0.91
methionine Ratio (Compound 309/Vehicle) [4]: 0.88
phenylalanine Ratio (Compound 309/Vehicle) [4]: 0.87
proline Ratio (Compound 309/Vehicle) [4]: 0.96
propionylcarnitine Ratio (Compound 309/Vehicle) [4]: 1.07
serine Ratio (Compound 309/Vehicle) [4]: 0.83^†
threonine Ratio (Compound 309/Vehicle) [4]: 0.9
tigloylglycine Ratio (Compound 309/Vehicle) [4]: 0.96
tryptophan Ratio (Compound 309/Vehicle) [4]: 1.02
tyrosine Ratio (Compound 309/Vehicle) [4]: 1.11
valine Ratio (Compound 309/Vehicle) [4]: 0.91
hydroxybutyrylcarnitine levels (all compartments sampled, 10 mg/kg): similarly increased
intermediates of the catabolic pathways of all three BCAA (all three major metabolic organs and plasma, 10 mg/kg): Marked reductions
effects on glucose metabolic pathways in global metabolite profiling (data not shown): no dramatic effects
relative levels of butyrylglycine and butyrylcarnitine (liver and plasma, 10 mg/kg): reduction
BHBA level vs vehicle (liver, 10 mg/kg oral once daily, day 3): no difference
3-hydroxybutyrate (BHBA) level vs vehicle (muscle, fat and plasma, 10 mg/kg oral once daily, day 3): significant elevation
